{"source": "patent US20230146675A1", "about": "“PYRIMIDO[5,4-d]PYRIMIDINE DERIVATIVES AS ENT INHIBITORS FOR THE TREATMENT OF CANCERS, AND COMBINATION THEREOF WITH ADENOSINE RECEPTOR ANTAGONISTS” (ITEOS BELGIUM SA, priority 2020, published 2023)", "data": [{"target": "T1, human ENT1 (Homo sapiens, UniProt Q99808)", "T1 sequence (Q99808 1-456)": "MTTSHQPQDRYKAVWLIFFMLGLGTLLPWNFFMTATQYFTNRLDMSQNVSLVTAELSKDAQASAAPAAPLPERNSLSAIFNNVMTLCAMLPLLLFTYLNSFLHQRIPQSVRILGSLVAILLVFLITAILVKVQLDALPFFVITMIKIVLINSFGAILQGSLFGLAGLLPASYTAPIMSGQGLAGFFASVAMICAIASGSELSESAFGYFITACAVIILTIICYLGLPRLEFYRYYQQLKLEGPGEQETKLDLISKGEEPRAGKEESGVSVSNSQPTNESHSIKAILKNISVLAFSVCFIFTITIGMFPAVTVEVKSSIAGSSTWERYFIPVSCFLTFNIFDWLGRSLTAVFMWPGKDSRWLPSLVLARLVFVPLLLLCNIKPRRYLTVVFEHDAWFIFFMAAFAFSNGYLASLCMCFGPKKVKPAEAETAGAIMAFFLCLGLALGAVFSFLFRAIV", "experiment": "ENT1 binding assay (competition with Sahenta-DY647 on JAR cells)", "parameters": "JAR cells expressing ENT1 were bought from ATCC; host or cells: JAR cells", "conditions": "binned IC50", "how_it_was_run": "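JAR cells were incubated with test compounds and the fluorescent ligand Sahenta-DY647 in competition. Plates were washed twice by centrifugation (4 min, 400 rcf, 4 °C). Binding potency was derived from the final fluorescence.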", "units": {"IC50": "nM"}, "values": [{"compound": "COCCN(CCOC)c1nc(N2CCCC(CO)C2)c2nc(N(CCOC)CCOC)nc(N3CCC(OC)CC3)c2n1", "note": "(stereo not shown) [Compound 115, (1-(2,6-bis(bis(2-methoxyethyl)amino)-8-(4-methoxypiperidin-1-yl)pyrimido[5,4-d]pyrimidin-4-yl)piperidin-3-yl)methanol]", "IC50": "100 to 500"}, {"compound": "COCCN(CCOC)c1nc(N2CCC(OC)CC2)c2nc(N(CCOC)CCOC)nc(NCC3CCCC3)c2n1", "note": "[Compound 55, N4-(cyclopentylmethyl)-N2,N2,N6,N6-tetrakis(2-methoxyethyl)-8-(4-methoxypiperidin-1-yl)pyrimido[5,4-d]pyrimidine-2,4,6-triamine]", "IC50": "100 to 500"}, {"compound": "COCCN(CCOC)c1nc(N2CCC(OC)CC2)c2nc(N(CCOC)CCOC)nc(NCCCn3ccnc3)c2n1", "note": "[Compound 176, N4-(3-(1H-imidazol-1-yl)propyl)-N2,N2,N6,N6-tetrakis(2-methoxyethyl)-8-(4-methoxypiperidin-1-yl)pyrimido[5,4-d]pyrimidine-2,4,6-triamine]", "IC50": "500 to 1000"}, {"compound": "CCCCNc1nc(N(CCOC)CCOC)nc2c(N3CCC(OC)CC3)nc(N(CCOC)CCOC)nc12", "note": "[Compound 54, N4-butyl-N2,N2,N6,N6-tetrakis(2-methoxyethyl)-8-(4-methoxypiperidin-1-yl)pyrimido[5,4-d]pyrimidine-2,4,6-triamine]", "IC50": "< 100"}, {"compound": "COCCN(CCOC)c1nc(N2CCC(OC)CC2)c2nc(N(CCO)CCO)nc(N3CCN(C4CC4)C(=O)C3)c2n1", "note": "[Compound 315, 4-(2-(bis(2-hydroxyethyl)amino)-6-(bis(2-methoxyethyl)amino)-8-(4-methoxypiperidin-1-yl)pyrimido[5,4-d]pyrimidin-4-yl)-1-cyclopropylpiperazin-2-one]", "IC50": "500 to 1000"}, {"compound": "COCCN(CCOC)c1nc(N2CCC(OC)CC2)c2nc(N(CCOC)CCOC)nc(N(C)Cc3ccc(OC)c(OC)c3)c2n1", "note": "[Compound 169, N4-(3,4-dimethoxybenzyl)-N2,N2,N6,N6-tetrakis(2-methoxyethyl)-8-(4-methoxypiperidin-1-yl)-N4-methylpyrimido[5,4-d]pyrimidine-2,4,6-triamine]", "IC50": "< 100"}, {"compound": "CCN(CCN1CCCC1)c1nc(N2CCC(OC)CC2)c2nc(N(CCOC)CCOC)nc(N3CCC(OC)CC3)c2n1", "note": "[Compound 132, N2-ethyl-N6,N6-bis(2-methoxyethyl)-4,8-bis(4-methoxypiperidin-1-yl)-N2-(2-(pyrrolidin-1-yl)ethyl)pyrimido[5,4-d]pyrimidine-2,6-diamine]", "IC50": "500 to 1000"}, {"compound": "COCCN(CCOC)c1nc(N2CCC(OC)CC2)c2nc(N(CCOC)CCOC)nc(N(C)Cc3cccc(OC(F)(F)F)c3)c2n1", "note": "[Compound 231, N2,N2,N6,N6-tetrakis(2-methoxyethyl)-8-(4-methoxypiperidin-1-yl)-N4-methyl-N4-(3-(trifluoromethoxy)benzyl)pyrimido[5,4-d]pyrimidine-2,4,6-triamine]", "IC50": "100 to 500"}, {"compound": "COC(C)CN(CC(C)OC)c1nc(N2CCC(OC)CC2)c2nc(N(CCO)CCO)nc(N3CCN(C)C(=O)C3)c2n1", "note": "(stereo not shown) [Compound 328, 4-(2-(bis(2-hydroxyethyl)amino)-6-(bis(2-methoxypropyl)amino)-8-(4-methoxypiperidin-1-yl)pyrimido[5,4-d]pyrimidin-4-yl)-1-methylpiperazin-2-one]", "IC50": "100 to 500"}, {"compound": "COCCN(CCOC)c1nc(N2CCn3ncnc3C2)c2nc(N(CCOC)CCOC)nc(N3CCC(OC)CC3)c2n1", "note": "[Compound 116, 4-(5,6-dihydro-[1,2,4]triazolo[1,5-a]pyrazin-7(8H)-yl)-N2,N2,N6,N6-tetrakis(2-methoxyethyl)-8-(4-methoxypiperidin-1-yl)pyrimido[5,4-d]pyrimidine-2,6-diamine]", "IC50": "< 100"}, {"compound": "COCCN(CCOC)c1nc(N2CCC(OC)CC2)c2nc(N(CCOC)CCOC)nc(NCc3cccc(C#N)c3)c2n1", "note": "[Compound 145, 3-(((2,6-bis(bis(2-methoxyethyl)amino)-8-(4-methoxypiperidin-1-yl)pyrimido[5,4-d]pyrimidin-4-yl)amino)methyl)benzonitrile]", "IC50": "< 100"}, {"compound": "COCCN(CCOC)c1nc(N2CCC(OC)CC2)c2nc(N(CCOC)CCOC)nc(NCc3ccc(OC)cc3)c2n1", "note": "[Compound 47, N4-(4-methoxybenzyl)-N2,N2,N6,N6-tetrakis(2-methoxyethyl)-8-(4-methoxypiperidin-1-yl)pyrimido[5,4-d]pyrimidine-2,4,6-triamine]", "IC50": "100 to 500"}, {"compound": "COCCN(CCOC)c1nc(N2CCN(C)C(=O)C2)c2nc(N(CCOC)CCOC)nc(N(C)C)c2n1", "note": "[Compound 320, 4-(2,6-bis(bis(2-methoxyethyl)amino)-8-(dimethylamino)pyrimido[5,4-d]pyrimidin-4-yl)-1-methylpiperazin-2-one]", "IC50": "500 to 1000"}, {"compound": "COCCN(CCOC)c1nc(N2CCc3oc(C)nc3C2)c2nc(N(CCOC)Cc3ccc(C(=O)O)cc3)nc(N3CCN(C)C(=O)C3)c2n1", "note": "[Compound 335, 4-(((6-(bis(2-methoxyethyl)amino)-4-(4-methyl-3-oxopiperazin-1-yl)-8-(2-methyl-6,7-dihydrooxazolo[4,5-c]pyridin-5(4H)-yl)pyrimido[5,4-d]pyrimidin-2-yl)(2-methoxyethyl)amino)methyl)benzoic acid]", "IC50": "< 100"}, {"compound": "COCCN(CCOC)c1nc(N2CCS(=O)(=O)CC2)c2nc(N(CCOC)CCOC)nc(N3CCC(OC)CC3)c2n1", "note": "[Compound 77, 4-(2,6-bis(bis(2-methoxyethyl)amino)-8-(4-methoxypiperidin-1-yl)pyrimido[5,4-d]pyrimidin-4-yl)thiomorpholine 1,1-dioxide]", "IC50": "< 100"}, {"compound": "COCCN(CCOC)c1nc(N2CC(O)(C(F)(F)F)C2)c2nc(N(CCOC)CCOC)nc(N3CCS(=O)(=O)CC3)c2n1", "note": "[Compound 192, 4-(2,6-bis(bis(2-methoxyethyl)amino)-8-(3-hydroxy-3-(trifluoromethyl)azetidin-1-yl)pyrimido[5,4-d]pyrimidin-4-yl)thiomorpholine 1,1-dioxide]", "IC50": "100 to 500"}, {"compound": "COCCN(CCOC)c1nc(N2CCC(OC)CC2)c2nc(N(CCOC)CCOCCN3C(=O)c4ccccc4C3=O)nc(N3CCC(OC)CC3)c2n1", "note": "[Compound 172, 2-(2-(2-((6-(bis(2-methoxyethyl)amino)-4,8-bis(4-methoxypiperidin-1-yl)pyrimido[5,4-d]pyrimidin-2-yl)(2-methoxyethyl)amino)ethoxy)ethyl)isoindoline-1,3-dione]", "IC50": "100 to 500"}, {"compound": "COCCN(CCOC)c1nc(N(C)C2CCCC2)c2nc(N(CCOC)CCOC)nc(N3CCC(OC)CC3)c2n1", "note": "[Compound 166, N4-cyclopentyl-N2,N2,N6,N6-tetrakis(2-methoxyethyl)-8-(4-methoxypiperidin-1-yl)-N4-methylpyrimido[5,4-d]pyrimidine-2,4,6-triamine]", "IC50": "100 to 500"}, {"compound": "COCCN(CCOC)c1nc(N2CCC(OC)CC2)c2nc(N3CCn4ccnc4C3)nc(N3CCN(C)C(=O)C3)c2n1", "note": "[Compound 295, 4-(6-(bis(2-methoxyethyl)amino)-2-(5,6-dihydroimidazo[1,2-a]pyrazin-7(8H)-yl)-8-(4-methoxypiperidin-1-yl)pyrimido[5,4-d]pyrimidin-4-yl)-1-methylpiperazin-2-one]", "IC50": "100 to 500"}, {"compound": "COCCN(CCOC)c1nc(N2CCc3cnn(C)c3C2)c2nc(N(CCOC)CCOC)nc(N3CCN(C)C(=O)C3)c2n1", "note": "[Compound 266, 4-(2,6-bis(bis(2-methoxyethyl)amino)-8-(1-methyl-1,4,5,7-tetrahydro-6H-pyrazolo[3,4-c]pyridin-6-yl)pyrimido[5,4-d]pyrimidin-4-yl)-1-methylpiperazin-2-one]", "IC50": "< 100"}, {"compound": "COCCN(CCOC)c1nc(N2CCC(OC)CC2)c2nc(N(CCOC)CCOC)nc(NCCCNS(C)(=O)=O)c2n1", "note": "[Compound 180, N-(3-((2,6-bis(bis(2-methoxyethyl)amino)-8-(4-methoxypiperidin-1-yl)pyrimido[5,4-d]pyrimidin-4-yl)amino)propyl)methanesulfonamide]", "IC50": "500 to 1000"}, {"compound": "COCCN(CCOC)c1nc(N2CCC(OC)CC2)c2nc(N3CCn4nncc4C3)nc(N3CCN(C)C(=O)C3)c2n1", "note": "[Compound 287, 4-(6-(bis(2-methoxyethyl)amino)-2-(6,7-dihydro-[1,2,3]triazolo[1,5-a]pyrazin-5(4H)-yl)-8-(4-methoxypiperidin-1-yl)pyrimido[5,4-d]pyrimidin-4-yl)-1-methylpiperazin-2-one]", "IC50": "100 to 500"}, {"compound": "COCCN(CCOC)c1nc(N2CCN(c3ncn(C)n3)CC2)c2nc(N(CCOC)CCOC)nc(NCc3ccc(F)c(C#N)c3)c2n1", "note": "[Compound 225, 5-(((2,6-bis(bis(2-methoxyethyl)amino)-8-(4-(1-methyl-1H-1,2,4-triazol-3-yl)piperazin-1-yl)pyrimido[5,4-d]pyrimidin-4-yl)amino)methyl)-2-fluorobenzonitrile]", "IC50": "< 100"}, {"compound": "COCCN(CCOC)c1nc(N2CCN(c3ncn(C)n3)CC2)c2nc(N(CCOC)CCOC)nc(N(C)Cc3ccc(F)c(C#N)c3)c2n1", "note": "[Compound 245, 5-(((2,6-bis(bis(2-methoxyethyl)amino)-8-(4-(1-methyl-1H-1,2,4-triazol-3-yl)piperazin-1-yl)pyrimido[5,4-d]pyrimidin-4-yl)(methyl)amino)methyl)-2-fluorobenzonitrile]", "IC50": "500 to 1000"}, {"compound": "COCCN(CCCS(C)(=O)=O)c1nc(N2CCN(C)C(=O)C2)c2nc(N(CCOC)CCOC)nc(N3CCC(OC)CC3)c2n1", "note": "[Compound 289, 4-(6-(bis(2-methoxyethyl)amino)-2-((2-methoxyethyl)(3-(methylsulfonyl)propyl)amino)-8-(4-methoxypiperidin-1-yl)pyrimido[5,4-d]pyrimidin-4-yl)-1-methylpiperazin-2-one]", "IC50": "< 100"}]}]}
